# Source: patent US11214803B2, “Modulators of YAP1 expression” (Ionis Pharmaceuticals, Inc., priority 2019, dated 2022)
# Strand notation (5' to 3'): a small letter for the sugar, then the base; units joined by * are phosphorothioate-linked, units joined directly phosphodiester-linked; [ ] holds rarer units or linkages, { } end groups; capitals alone tell only the bases. k = constrained ethyl (cEt); [5mC] = 5-methylcytosine; d = 2'-deoxy (DNA)
# Tested on: Yap1 mRNA
# Assay: Antisense inhibition of human Yap1 in A-431 cells by cEt gapmers, single dose (Example 4, RTS4814)
# Assay type: cell-based
# Method in brief: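 Values are % UTC: Yap1 mRNA by quantitative RT-PCR, normalized to RIBOGREEN total RNA. Cells were exposed ~48 h to 2,000 nM oligonucleotide without transfection. Oligonucleotides were 16-nucleoside gapmers with three cEt nucleosides per wing, ten-deoxy gap, P=S linkages throughout.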
# [1] = Table 17, A-431 cells, 5,000 cells per well, free uptake, 2,000 nM, approximately 48 hours, RTS4814, normalized to RIBOGREEN, Yap1 mRNA relative to untreated control cells
# [2] = Yap1 mRNA remaining as percent of untreated control, 3-10-3 cEt gapmers, A-431 cells, Table 36
# [3] = Table 14, A-431 cells, 5,000 cells per well, free uptake, 2,000 nM, approximately 48 hours, RTS4814, normalized to RIBOGREEN, Yap1 mRNA relative to untreated control, * = targets amplicon region of primer probe set
# [4] = Table 16, A-431 cells, 5,000 cells per well, free uptake, 2,000 nM, approximately 48 hours, RTS4814, normalized to RIBOGREEN, Yap1 mRNA relative to untreated control cells
# [5] = Table 15, A-431 cells, 5,000 cells per well, free uptake, 2,000 nM, approximately 48 hours, RTS4814, normalized to RIBOGREEN, Yap1 mRNA relative to untreated control, * = targets amplicon region of primer probe set
# [6] = Yap1 mRNA remaining as percent of untreated control, 3-10-3 cEt gapmers, A-431 cells, Table 37
substance,measurement,setting,value
1075523 (kA*kA*kT*dT*dA*dA*dG*dG*dG*d[5mC]*d[5mC]*d[5mC]*dA*k[5mC]*kA*kA; antisense) [Compound 1075523],YAP1 (% UTC),[1],78 % UTC
1076470 (kG*kA*kT*dA*dA*dA*dG*dA*dG*dG*dT*dT*dA*kA*k[5mC]*kA; antisense) [compound 1076470],YAP1 (% UTC),[2],34 % UTC
1075008 (antisense kT*kA*kA*dT*d[5mC]*dG*dA*dA*d[5mC]*dA*dT*dT*dG*kT*kG*kT) [Compound 1075008],YAP1 (% UTC),[3],61 % UTC
1075200 (antisense k[5mC]*kA*kT*dA*dT*dT*dA*dA*d[5mC]*dT*dA*dG*dA*kT*kG*kA) [Compound 1075200],YAP1 (% UTC),[3],120 % UTC
1074626 (antisense k[5mC]*kT*kG*dT*dT*dA*dT*dG*dA*dA*d[5mC]*d[5mC]*d[5mC]*kT*kT*kG) [Compound 1074626],YAP1 (% UTC),[4],5 % UTC
1076065 (k[5mC]*kT*kT*dT*dA*dG*dT*dA*dA*d[5mC]*dA*d[5mC]*dG*kA*kA*kT; antisense) [Compound 1076065],YAP1 (% UTC),[5],36 % UTC
1075651 (kT*kA*kT*dA*dT*dT*dA*d[5mC]*dA*dA*dT*d[5mC]*d[5mC]*k[5mC]*kA*kG; antisense) [Compound 1075651],YAP1 (% UTC),[1],57 % UTC
1076502 (k[5mC]*kA*kA*dA*dG*dT*dA*dA*dG*dT*dG*dA*dG*k[5mC]*k[5mC]*k[5mC]; antisense) [compound 1076502],YAP1 (% UTC),[2],17 % UTC
1075894 (antisense k[5mC]*kT*k[5mC]*dG*dA*dA*dA*dG*d[5mC]*dT*dG*dG*dG*k[5mC]*k[5mC]*k[5mC]) [compound 1075894],YAP1 (% UTC),[2],100 % UTC
1076099 (k[5mC]*k[5mC]*kT*d[5mC]*dA*dA*dA*dA*d[5mC]*dT*dT*dG*dG*kA*kT*kT; antisense) [Compound 1076099],YAP1 (% UTC),[1],41 % UTC
1074720 (antisense kG*kA*kA*dG*dA*dT*d[5mC]*dT*d[5mC]*d[5mC]*dA*dT*dA*kT*kT*k[5mC]) [Compound 1074720],YAP1 (% UTC),[3],58 % UTC
1075458 (antisense k[5mC]*k[5mC]*kA*d[5mC]*dA*dA*dT*dA*dT*dA*d[5mC]*dT*d[5mC]*k[5mC]*kA*kA) [Compound 1075458],YAP1 (% UTC),[4],7 % UTC
1074998 (antisense k[5mC]*kA*k[5mC]*dG*d[5mC]*dG*dA*d[5mC]*d[5mC]*dT*dA*d[5mC]*dT*kA*kA*kG) [compound 1074998],YAP1 (% UTC),[2],61 % UTC
1075639 (antisense kA*kA*kT*dT*dA*dA*d[5mC]*d[5mC]*dA*dG*dA*dA*dG*k[5mC]*k[5mC]*kT) [compound 1075639],YAP1 (% UTC),[6],101 % UTC
1076066 (k[5mC]*kA*kT*dA*dT*dA*dA*dG*dA*dT*dG*dT*dT*kT*kG*k[5mC]; antisense) [Compound 1076066],YAP1 (% UTC),[4],8 % UTC
1076129 (k[5mC]*kA*kT*dA*dA*dA*d[5mC]*d[5mC]*dT*dT*dA*dG*dT*k[5mC]*k[5mC]*kT; antisense) [Compound 1076129],YAP1 (% UTC),[5],26 % UTC
1074624 (antisense kG*kG*k[5mC]*dT*dT*dA*dT*dT*d[5mC]*dT*dA*dG*dA*kA*kA*k[5mC]) [Compound 1074624],YAP1 (% UTC),[3],65 % UTC
1076096 (kA*kA*kT*dA*dA*dT*dA*dA*dA*d[5mC]*dG*dA*dT*kT*k[5mC]*kT; antisense) [Compound 1076096],YAP1 (% UTC),[3],71 % UTC
1074934 (antisense k[5mC]*kA*kG*dG*dA*dG*dA*d[5mC]*dT*dA*dT*dA*d[5mC]*kA*kA*k[5mC]) [compound 1074934],YAP1 (% UTC),[2],74 % UTC
1074711 (antisense kA*k[5mC]*kT*d[5mC]*dT*dA*dG*dA*dA*d[5mC]*dA*dG*d[5mC]*kT*kG*k[5mC]) [compound 1074711],YAP1 (% UTC),[6],28 % UTC
1076214 (kA*kT*k[5mC]*d[5mC]*dT*dA*dT*dA*d[5mC]*dA*dT*dT*dA*kA*kG*kA; antisense) [compound 1076214],YAP1 (% UTC),[2],67 % UTC
1076374 (antisense kA*kT*kA*dA*d[5mC]*dG*dG*dA*dT*dA*dT*dA*d[5mC]*kA*kA*kT) [compound 1076374],YAP1 (% UTC),[2],15 % UTC
1076322 (kA*kT*kT*dT*dA*d[5mC]*dA*dA*dG*dT*dG*dA*dG*k[5mC]*kA*k[5mC]; antisense) [Compound 1076322],YAP1 (% UTC),[4],21 % UTC
1074273 (antisense k[5mC]*kT*kT*dA*dT*dG*dG*dT*dT*dT*dA*dT*dA*kT*kA*kG) [Compound 1074273],YAP1 (% UTC),[5],34 % UTC
1076387 (kT*kG*kA*d[5mC]*dA*dA*d[5mC]*dA*d[5mC]*dA*dG*dT*dT*kA*kT*kA; antisense) [Compound 1076387],YAP1 (% UTC),[1],13 % UTC
1075991 (kA*kT*kA*dT*dA*dG*dG*dA*d[5mC]*d[5mC]*dA*d[5mC]*dG*kA*k[5mC]*kT; antisense) [compound 1075991],YAP1 (% UTC),[6],62 % UTC
1076097 (k[5mC]*kA*kA*dT*dA*dA*dT*dA*dA*dA*d[5mC]*dG*dA*kT*kT*k[5mC]; antisense) [Compound 1076097],YAP1 (% UTC),[5],70 % UTC
1075063 (antisense kT*kA*k[5mC]*dG*dG*dA*dA*dG*dG*d[5mC]*d[5mC]*dA*dA*k[5mC]*kT*kG) [compound 1075063],YAP1 (% UTC),[6],16 % UTC
1074528 (k[5mC]*kT*kG*d[5mC]*d[5mC]*d[5mC]*d[5mC]*dA*dA*d[5mC]*d[5mC]*dA*dG*kA*kT*kT; antisense) [Compound 1074528],YAP1 (% UTC),[3],25 % UTC
1075830 (kG*kA*kT*dG*dA*dA*d[5mC]*dA*d[5mC]*dT*d[5mC]*dA*dA*kT*kA*kG; antisense) [compound 1075830],YAP1 (% UTC),[2],12 % UTC
1075905 (k[5mC]*k[5mC]*kT*dG*dA*dA*d[5mC]*dA*d[5mC]*dA*dG*dG*dA*kG*kT*kA; antisense) [Compound 1075905],YAP1 (% UTC),[5],43 % UTC
1075927 (antisense kG*k[5mC]*kT*dT*dA*dA*dA*dA*dT*d[5mC]*dA*dT*dG*kT*kA*kG) [compound 1075927],YAP1 (% UTC),[6],32 % UTC
1074614 (DNA kT*k[5mC]*kA*dT*dA*dG*d[5mC]*dT*dT*dA*dT*dA*dT*kT*kG*kA; antisense) [compound 1074614],YAP1 (% UTC),[2],49 % UTC
1076291 (kG*kA*kT*dT*dA*dA*dT*dG*dG*dT*dG*dG*d[5mC]*kA*kT*kT; antisense) [Compound 1076291],YAP1 (% UTC),[1],4 % UTC
1074337 (antisense kG*kA*kG*dT*d[5mC]*d[5mC]*d[5mC]*dA*d[5mC]*d[5mC]*dA*dT*d[5mC]*k[5mC]*kT*kG) [Compound 1074337],YAP1 (% UTC),[5],10 % UTC
1074166 (antisense kA*k[5mC]*k[5mC]*d[5mC]*dA*dG*dG*d[5mC]*dG*dA*dG*d[5mC]*dG*kA*kG*kG) [compound 1074166],YAP1 (% UTC),[2],72 % UTC
1074658 (antisense kG*kG*k[5mC]*d[5mC]*dA*dT*dT*dT*d[5mC]*d[5mC]*d[5mC]*d[5mC]*d[5mC]*k[5mC]*kA*kG) [Compound 1074658],YAP1 (% UTC),[4],89 % UTC
1076033 (k[5mC]*kA*kT*dT*dA*dG*dT*dA*dG*dG*dT*dA*dT*kT*kT*k[5mC]; antisense) [Compound 1076033],YAP1 (% UTC),[5],8 % UTC
1076194 (kT*kT*kT*dA*dA*dT*dA*d[5mC]*dA*d[5mC]*dA*dG*dG*kT*kT*k[5mC]; antisense) [Compound 1076194],YAP1 (% UTC),[4],22 % UTC
1075190 (kT*kA*kT*d[5mC]*dA*dA*dG*dG*dA*dT*dT*d[5mC]*dA*kG*kT*kA; antisense) [compound 1075190],YAP1 (% UTC),[2],45 % UTC
1075127 (kG*k[5mC]*kT*dA*dA*dA*dT*dT*dA*dT*dG*d[5mC]*dT*kA*kT*kT; antisense) [compound 1075127],YAP1 (% UTC),[6],79 % UTC
1076547 (antisense kG*kA*k[5mC]*d[5mC]*dA*dA*d[5mC]*d[5mC]*dT*d[5mC]*d[5mC]*d[5mC]*dT*k[5mC]*kA*kG) [Compound 1076547],YAP1 (% UTC),[1],89 % UTC
1074433 (antisense kA*kA*kG*dT*d[5mC]*dT*dG*dA*dG*dT*dA*dT*dT*kT*kA*kG) [Compound 1074433],YAP1 (% UTC),[5],5* % UTC
1075745 (k[5mC]*kT*kT*d[5mC]*dA*dA*dA*dA*dG*d[5mC]*dA*d[5mC]*dG*kG*kT*kG; antisense) [Compound 1075745],YAP1 (% UTC),[5],58 % UTC
1075585 (kA*kA*kA*dT*dA*dA*dT*dT*dG*dA*d[5mC]*d[5mC]*dT*kA*kG*k[5mC]; antisense) [Compound 1075585],YAP1 (% UTC),[5],52 % UTC
1075843 (k[5mC]*kA*kT*dG*dA*dA*dA*dT*dG*dA*dT*dG*dG*kA*kA*k[5mC]; antisense) [Compound 1075843],YAP1 (% UTC),[1],47 % UTC
